Source: patent US6355799B1, “Substituted benzene compounds, process for their preparation, and herbicidal and defoliant compositions containing them” (ISK Americas Incorporated, priority 1997, dated 2002)

What was measured:
Assay type in all cases: in vivo
[1] = system: field corn (Zea mays L., var. Dekalb 535, CORN); assay: Post-emerge test, crop safety; details: post-emerge, 14 days after application, rating scale 0-100
Summary of the method: (§1)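 Each test used a mechanized track sprayer delivering 187 l/ha of acetone solution at 15–1000 g ai/ha. Post-emerge foliage at 2–3 leaves was treated with added 0.25% v/v non-ionic surfactant and bottom-watered only. Injury was assessed on day 14, where 100 means total kill.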

[2] = system: upland rice (Oryza sp., var. Tebonnet, RICE); assay: Post-emerge test, crop safety; details: post-emerge, 14 days after application, rating scale 0-100
Summary of the method: as §1

[3] = system: field corn (Zea mays L., var. Dekalb 535, CORN); assay: Pre-emerge test, crop safety; details: crop damage rating 0-100, 14 days after application
Summary of the method: (§2)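 Herbicidal damage is scored 0 (none) to 100 (complete plant death) two weeks after a simulated field spray. Rates span 15–1000 g ai/ha, delivered in acetone at 187 l/ha. For post-emergence treatments, plants have 2–3 leaves and the spray carries 0.25% v/v non-ionic surfactant.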

[4] = system: upland rice (Oryza sp., var. Tebonnet, RICE); assay: Pre-emerge test, crop safety; details: crop damage rating 0-100, 14 days after application
Summary of the method: as §2

[5] = system: johnsongrass (Sorghum halepense, SORHA); assay: Pre-emerge test, greenhouse herbicide activity screening; details: phytotoxicity rating 0-100, 14 days after application
Summary of the method: (§3)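 Plants grown in 10 cm pots of sandy loam mix received acetone-dissolved compounds through a moving flat-fan nozzle. Doses ranged from 15 to 1000 g ai/ha. Pre-emerge pots were seeded one day earlier, post-emerge pots 8–21 days earlier. Fourteen days on, each pot was graded 0–100 for damage.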

[6] = system: sicklepod (Cassia obtusifolia, CASOB); assay: as above; details: phytotoxicity rating 0-100, 14 days after application
Summary of the method: as §3

[7] = system: green foxtail (Setaria viridis, SETVI); assay: as above; details: phytotoxicity rating 0-100, 14 days after application
Summary of the method: as §3

[8] = system: large crabgrass (Digitaria sanguinalis, DIGSA); assay: as above; details: phytotoxicity rating 0-100, 14 days after application
Summary of the method: as §3

[9] = system: ivyleaf morningglory (Ipomoea hederacea, IPOHE); assay: as above; details: phytotoxicity rating 0-100, 14 days after application
Summary of the method: as §3

[10] = system: velvetleaf (Abutilon theophrasti, ABUTH); assay: as above; details: phytotoxicity rating 0-100, 14 days after application
Summary of the method: as §3

[11] = system: barnyardgrass (Echinochloa crus-galli, ECHCG); assay: as above; details: phytotoxicity rating 0-100, 14 days after application
Summary of the method: as §3

[12] = system: lambsquarters (Chenopodium album, CHEAL); assay: as above; details: phytotoxicity rating 0-100, 14 days after application
Summary of the method: as §3

[13] = system: johnsongrass (Sorghum halepense, SORHA); assay: Post-emerge test, greenhouse herbicide activity screening; details: post-emerge, 14 days after application, rating scale 0-100
Summary of the method: (§4)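 Compounds in acetone were track-sprayed at 15–1000 g ai/ha: pre-emergence onto soil sown the previous day, then top-watered to incorporate and later bottom-watered; post-emergence onto 2–3 leaf plants with 0.25% v/v surfactant, bottom-watered only. Ratings on a 0–100 phytotoxicity scale were taken at day 14.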

[14] = system: sicklepod (Cassia obtusifolia, CASOB); assay: as above; details: post-emerge, 14 days after application, rating scale 0-100
Summary of the method: as §4

[15] = system: green foxtail (Setaria viridis, SETVI); assay: as above; details: post-emerge, 14 days after application, rating scale 0-100
Summary of the method: as §4

[16] = system: large crabgrass (Digitaria sanguinalis, DIGSA); assay: as above; details: post-emerge, 14 days after application, rating scale 0-100
Summary of the method: as §4

[17] = system: ivyleaf morningglory (Ipomoea hederacea, IPOHE); assay: as above; details: post-emerge, 14 days after application, rating scale 0-100
Summary of the method: as §4

[18] = system: redroot pigweed (Amaranthus retroflexus, AMARE); assay: as above; details: post-emerge, 14 days after application
Summary of the method: as §4

[19] = system: velvetleaf (Abutilon theophrasti, ABUTH); assay: as above; details: post-emerge, 14 days after application, rating scale 0-100
Summary of the method: as §4

[20] = system: barnyardgrass (Echinochloa crus-galli, ECHCG); assay: as above; details: post-emerge, 14 days after application, rating scale 0-100
Summary of the method: as §4

[21] = system: lambsquarters (Chenopodium album, CHEAL); assay: as above; details: post-emerge, 14 days after application, rating scale 0-100
Summary of the method: as §4

[22] = system: redroot pigweed (Amaranthus retroflexus, AMARE); assay: Pre-emerge test, greenhouse herbicide activity screening; details: phytotoxicity rating 0-100, 14 days after application
Summary of the method: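 Visual ratings on a 0-100 scale (0 no damage, 100 all plants dead) were taken at 14 days after treatment. Rates of 15-1000 g ai/ha in acetone, 187 l/ha, were sprayed onto soil one day after planting (pre-emerge) or onto 2-3 leaf plants with 0.25% v/v surfactant (post-emerge).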

[23] = 63 g ai/ha, rating scale 0-100 (0 no damage, 100 complete death)
[24] = 250 g ai/ha, rating scale 0-100

SMILES: COc1c(Cl)cc(F)c(-n2c(=O)cc(C(F)(F)F)n(C)c2=O)c1NC(=O)OCc1ccc(Cl)c(Cl)c1 [4-32]
- phytotoxicity rating CORN (crop damage) ([1]; 63 g ai/ha): 20
- phytotoxicity rating CORN (crop damage) ([1]; 250 g ai/ha): 30
- phytotoxicity rating RICE (crop damage) ([2]; 63 g ai/ha): 20
- phytotoxicity rating RICE (crop damage) ([2]; 250 g ai/ha): 40
- Pre-emerge Herbicidal Activity CORN ([3]; 63 g ai/ha): 0
- Pre-emerge Herbicidal Activity CORN ([3]; 250 g ai/ha): 10
- Pre-emerge Herbicidal Activity RICE ([4]; 63 g ai/ha): 0
- Pre-emerge Herbicidal Activity RICE ([4]; 250 g ai/ha): 30
- Pre-emerge Herbicidal Activity SORHA ([5]; 63 g ai/ha): 0
- Pre-emerge Herbicidal Activity SORHA ([5]; 250 g ai/ha): 30
- Pre-emerge Herbicidal Activity CASOB ([6]; 63 g ai/ha): 0
- Pre-emerge Herbicidal Activity CASOB ([6]; 250 g ai/ha): 30
- Pre-emerge Herbicidal Activity SETVI ([7]; 63 g ai/ha): 30
- Pre-emerge Herbicidal Activity SETVI ([7]; 250 g ai/ha): 95
- Pre-emerge Herbicidal Activity DIGSA ([8]; 63 g ai/ha): 20
- Pre-emerge Herbicidal Activity DIGSA ([8]; 250 g ai/ha): 80
- Pre-emerge Herbicidal Activity IPOHE ([9]; 63 g ai/ha): 0
- Pre-emerge Herbicidal Activity IPOHE ([9]; 250 g ai/ha): 40
- Pre-emerge Herbicidal Activity ABUTH ([10]; 63 g ai/ha): 0
- Pre-emerge Herbicidal Activity ABUTH ([10]; 250 g ai/ha): 70
- Pre-emerge Herbicidal Activity ECHCG ([11]; 63 g ai/ha): 0
- Pre-emerge Herbicidal Activity ECHCG ([11]; 250 g ai/ha): 50
- Pre-emerge Herbicidal Activity CHEAL ([12]; 63 g ai/ha): 80
- Pre-emerge Herbicidal Activity CHEAL ([12]; 250 g ai/ha): 100
- phytotoxicity rating SORHA ([13]; 63 g ai/ha): 10
- phytotoxicity rating SORHA ([13]; 250 g ai/ha): 30
- phytotoxicity rating CASOB ([14]; 63 g ai/ha): 80
- phytotoxicity rating CASOB ([14]; 250 g ai/ha): 80
- phytotoxicity rating SETVI ([15]; 63 g ai/ha): 30
- phytotoxicity rating SETVI ([15]; 250 g ai/ha): 50
- phytotoxicity rating DIGSA ([16]; 63 g ai/ha): 10
- phytotoxicity rating DIGSA ([16]; 250 g ai/ha): 20
- phytotoxicity rating IPOHE ([17]; 63 g ai/ha): 100
- phytotoxicity rating IPOHE ([17]; 250 g ai/ha): 100
- phytotoxicity rating AMARE [18, 23]: 100
- phytotoxicity rating AMARE [18, 24]: 100
- phytotoxicity rating ABUTH ([19]; 63 g ai/ha): 90
- phytotoxicity rating ABUTH ([19]; 250 g ai/ha): 100
- phytotoxicity rating ECHCG ([20]; 63 g ai/ha): 0
- phytotoxicity rating ECHCG ([20]; 250 g ai/ha): 20
- phytotoxicity rating CHEAL ([21]; 63 g ai/ha): 100
- phytotoxicity rating CHEAL ([21]; 250 g ai/ha): 100
- Pre-emerge Herbicidal Activity AMARE ([22]; 63 g ai/ha): 50
- Pre-emerge Herbicidal Activity AMARE ([22]; 250 g ai/ha): 100

SMILES: COc1c(Cl)cc(F)c(-n2c(=O)cc(C(F)(F)F)n(C)c2=O)c1NC(=O)OCc1ccccc1C(F)(F)F [4-33]
- phytotoxicity rating CORN (crop damage) ([1]; 63 g ai/ha): 15
- phytotoxicity rating CORN (crop damage) ([1]; 250 g ai/ha): 25
- phytotoxicity rating RICE (crop damage) ([2]; 63 g ai/ha): 30
- phytotoxicity rating RICE (crop damage) ([2]; 250 g ai/ha): 40
- Pre-emerge Herbicidal Activity CORN ([3]; 63 g ai/ha): 10
- Pre-emerge Herbicidal Activity CORN ([3]; 250 g ai/ha): 50
- Pre-emerge Herbicidal Activity RICE ([4]; 63 g ai/ha): 20
- Pre-emerge Herbicidal Activity RICE ([4]; 250 g ai/ha): 40
- Pre-emerge Herbicidal Activity SORHA ([5]; 63 g ai/ha): 30
- Pre-emerge Herbicidal Activity SORHA ([5]; 250 g ai/ha): 80
- Pre-emerge Herbicidal Activity CASOB ([6]; 63 g ai/ha): 0
- Pre-emerge Herbicidal Activity CASOB ([6]; 250 g ai/ha): 50
- Pre-emerge Herbicidal Activity SETVI ([7]; 63 g ai/ha): 100
- Pre-emerge Herbicidal Activity SETVI ([7]; 250 g ai/ha): 100
- Pre-emerge Herbicidal Activity DIGSA ([8]; 63 g ai/ha): 45
- Pre-emerge Herbicidal Activity DIGSA ([8]; 250 g ai/ha): 90
- Pre-emerge Herbicidal Activity IPOHE ([9]; 63 g ai/ha): 0
- Pre-emerge Herbicidal Activity IPOHE ([9]; 250 g ai/ha): 70
- Pre-emerge Herbicidal Activity ABUTH ([10]; 63 g ai/ha): 50
- Pre-emerge Herbicidal Activity ABUTH ([10]; 250 g ai/ha): 100
- Pre-emerge Herbicidal Activity ECHCG ([11]; 63 g ai/ha): 20
- Pre-emerge Herbicidal Activity ECHCG ([11]; 250 g ai/ha): 80
- Pre-emerge Herbicidal Activity CHEAL ([12]; 63 g ai/ha): 100
- Pre-emerge Herbicidal Activity CHEAL ([12]; 250 g ai/ha): 100
- phytotoxicity rating SORHA ([13]; 63 g ai/ha): 0
- phytotoxicity rating SORHA ([13]; 250 g ai/ha): 30
- phytotoxicity rating CASOB ([14]; 63 g ai/ha): 30
- phytotoxicity rating CASOB ([14]; 250 g ai/ha): 70
- phytotoxicity rating SETVI ([15]; 63 g ai/ha): 30
- phytotoxicity rating SETVI ([15]; 250 g ai/ha): 40
- phytotoxicity rating DIGSA ([16]; 63 g ai/ha): 10
- phytotoxicity rating DIGSA ([16]; 250 g ai/ha): 30
- phytotoxicity rating IPOHE ([17]; 63 g ai/ha): 100
- phytotoxicity rating IPOHE ([17]; 250 g ai/ha): 100
- phytotoxicity rating AMARE [18, 23]: 100
- phytotoxicity rating AMARE [18, 24]: 100
- phytotoxicity rating ABUTH ([19]; 63 g ai/ha): 100
- phytotoxicity rating ABUTH ([19]; 250 g ai/ha): 100
- phytotoxicity rating ECHCG ([20]; 63 g ai/ha): 10
- phytotoxicity rating ECHCG ([20]; 250 g ai/ha): 20
- phytotoxicity rating CHEAL ([21]; 63 g ai/ha): 90
- phytotoxicity rating CHEAL ([21]; 250 g ai/ha): 100
- Pre-emerge Herbicidal Activity AMARE ([22]; 63 g ai/ha): 100
- Pre-emerge Herbicidal Activity AMARE ([22]; 250 g ai/ha): 100
